Here are results for four compounds from patent EP0250264A1, “Irreversible dopamine-Beta-hydroxylase inhibitors” (SMITHKLINE BECKMAN CORPORATION, priority 1986, dated 1987).

For assay [1], the system named is Spontaneously hypertensive rats. In words: Mean arterial blood pressure in spontaneously hypertensive rats, monitored with indwelling tail artery cannulae. It is filed as in vivo. The conditions noted are these: 100 mg/kg intraperitoneally; for blood pressure reduction remaining at 260 minutes: 260 minutes after administration, b38 compares to vehicle-treated controls. How it is done: Spontaneously hypertensive rats were dosed with a suspension or solution of ß-ethynylbenzeneethanamine- methane sulfonate at a dose of 100 mg/kg intraperitoneally, and mean arterial blood pressure was monitored for 260 minutes using indwelling cannulae positioned in the tail arteries.
Blood pressure also was monitored in spontaneously hypertensive rats given 100 mg/kg intraperitoneally B-ethynyl-3-hydroxybenzeneethanamine hydrochloride.

Assay [2] concerns the target T1, DBH (Homo sapiens, UniProt P09172).
T1 sequence (P09172 1-617): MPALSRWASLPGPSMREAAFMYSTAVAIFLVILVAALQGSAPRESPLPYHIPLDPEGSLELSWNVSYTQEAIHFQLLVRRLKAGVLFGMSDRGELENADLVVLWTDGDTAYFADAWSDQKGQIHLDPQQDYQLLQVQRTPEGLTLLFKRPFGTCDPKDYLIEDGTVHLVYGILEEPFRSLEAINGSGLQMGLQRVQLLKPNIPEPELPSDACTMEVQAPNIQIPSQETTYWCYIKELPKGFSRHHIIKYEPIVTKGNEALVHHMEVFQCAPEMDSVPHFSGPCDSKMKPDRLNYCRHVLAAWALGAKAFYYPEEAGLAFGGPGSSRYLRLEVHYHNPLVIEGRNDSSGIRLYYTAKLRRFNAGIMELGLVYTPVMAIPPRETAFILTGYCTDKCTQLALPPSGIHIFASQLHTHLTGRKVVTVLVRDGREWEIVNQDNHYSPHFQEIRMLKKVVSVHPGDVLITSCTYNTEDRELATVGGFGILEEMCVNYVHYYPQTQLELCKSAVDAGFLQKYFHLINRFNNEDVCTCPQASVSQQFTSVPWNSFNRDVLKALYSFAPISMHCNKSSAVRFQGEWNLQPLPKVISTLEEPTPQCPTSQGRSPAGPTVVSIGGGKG
As to conditions: cited from earlier work.

Assay [3] addresses T1, DBH. Kind of assay: DBH inhibition assay, conversion of tyramine to octopamine (enzyme inhibition kinetic study). It is filed as biochemical. The conditions noted are these: enzyme incubated for up to 50 minutes with 10, 20, 40, or 80 µM concentrations. The method, then: DBH activity was assayed by a standard procedure for measuring the conversion of tyramine to octopamine in the presence of DBH. J.J. Pisano, et al., Biochim. Biophy. Acta, 43, 566-68 (1960). Octopamine was assayed following sodium periodate oxidation to p-hydroxybenzaldehyde by measuring spectrophotometric absorbance at 330 nm.
To measure DBH inhibition, the enzyme was incubated for up to 50 minutes with 10, 20, 40, or 80 µM concentrations of ß-ethynyl-4-hydroxybenzeneethanamine.

For `C#CC(CN)c1ccccc1.CS(=O)(=O)O` (stereo not shown) [ß-ethynylbenzeneethanamine- methane sulfonate], in assay [1], the “blood pressure reduction remaining at 260 minutes” value is reported as “approximately twenty”. Also, in assay [1] (twenty to forty minutes following administration), the “reductions in blood pressure” value is on record as “approximately twenty”.
In the case of phenylpicolinic acid, in assay [2], the “inhibitory activity relative to fusaric acid” value is given as “twice the inhibitory activity of fusaric acid”.
For the compound `C#CC(CN)c1ccc(O)cc1.Cl` (stereo not shown) [ß-ethynyl-4-hydroxybenzeneethanamine, ß-Ethynyl-4-Hydroxybenzeneethanamine Hydrochloride], in assay [3], the DBH inhibition result is given as “concentration- dependent DBH inhibition” and the “enzyme inhibition, dependence on time” value was “time-dependent”.
Take `C#CC(CN)c1cccc(O)c1` (stereo not shown) [ß-Ethynyl-3-Hydrpxybenzeneethanamine]: the “blood pressure reduction remaining at 260 minutes” value in assay [1] is given as “approximately ten”. In assay [1] (forty minutes following compound administration), the blood pressure reductions entry is listed as “thirty”.
